Counter-ions that a name gives are not always drawn. Calls of active or inactive are those of the source.
Tests used:
[1] = target: SUMO E1/E2 (Homo sapiens, UniProt P63279+Q9UBE0+Q9UBT2); test: SAR analysis of SUMOylation using HTRF in an in-Vitro dose response assay. [Related pubchem assays (depositor defined):AID2006, AID2011, AID2018, AID2069, AID2658]; assay type: functional
[2] = tested on: HEK293; test: cells; details: Homo sapiens
[3] = tested on: HEK293; test: cells; details: Homo sapiens; remark: listed apart in the source
[4] = target: Voltage-gated inwardly rectifying potassium channel KCNH2 (Homo sapiens, UniProt Q12809); details: Potency;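 further: confirmatory quantitative high-throughput screen measuring inhibition of hERG channel activity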
[5] = target: T1, Cytochrome P450 2C9 (Homo sapiens, UniProt P11712); details: Potency
[6] = target: Cytochrome P450 2D6 (Homo sapiens, UniProt P10635);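 further: CYP2D6 member of a cytochrome P450 panel assay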
[7] = target: T1, Cytochrome P450 2C9
[8] = target: Beta-2 adrenergic receptor (Homo sapiens, UniProt P07550); test: beta2AR agonists driving receptor internalization, dose response, cell-based, FAP fluorogen, flow cytometry, cherry pick 1 (AID 588763); assay type: functional
[9] = tested on: HEK293; test: SAR analysis of compounds that are cytotoxic to HEK293 - Set 3. [Related pubchem assays (depositor defined):AID1575, AID1578, AID1848, AID1849, AID2001, AID2333, AID2334, AID2335, AID2337, AID2469]; assay type: functional, cell-based; details: Homo sapiens
[10] = tested on: HEK293; test: SAR analysis of compounds that are cytotoxic to HEK293 - Set 2. [Related pubchem assays (depositor defined):AID1575, AID1578, AID1849, AID2001, AID2333, AID2334, AID2335, AID2337, AID2800]; assay type: functional, cell-based; details: Homo sapiens
[11] = target: T2, Nucleotide-binding oligomerization domain-containing protein 2 (Homo sapiens, UniProt Q9HC29); test: NOD2 inhibitors, SAR follow-up, set 2 (AID 2475); assay type: functional
[12] = target: T3, Nucleotide-binding oligomerization domain-containing protein 1 (Homo sapiens, UniProt Q9Y239); test: SAR analysis of compounds that inhibit NOD1 - Set 3. [Related pubchem assays (depositor defined):AID1566, AID1575, AID1578, AID1849, AID1852, AID2333, AID2335, AID2466]; assay type: functional
T3 sequence (Q9Y239 whole entry): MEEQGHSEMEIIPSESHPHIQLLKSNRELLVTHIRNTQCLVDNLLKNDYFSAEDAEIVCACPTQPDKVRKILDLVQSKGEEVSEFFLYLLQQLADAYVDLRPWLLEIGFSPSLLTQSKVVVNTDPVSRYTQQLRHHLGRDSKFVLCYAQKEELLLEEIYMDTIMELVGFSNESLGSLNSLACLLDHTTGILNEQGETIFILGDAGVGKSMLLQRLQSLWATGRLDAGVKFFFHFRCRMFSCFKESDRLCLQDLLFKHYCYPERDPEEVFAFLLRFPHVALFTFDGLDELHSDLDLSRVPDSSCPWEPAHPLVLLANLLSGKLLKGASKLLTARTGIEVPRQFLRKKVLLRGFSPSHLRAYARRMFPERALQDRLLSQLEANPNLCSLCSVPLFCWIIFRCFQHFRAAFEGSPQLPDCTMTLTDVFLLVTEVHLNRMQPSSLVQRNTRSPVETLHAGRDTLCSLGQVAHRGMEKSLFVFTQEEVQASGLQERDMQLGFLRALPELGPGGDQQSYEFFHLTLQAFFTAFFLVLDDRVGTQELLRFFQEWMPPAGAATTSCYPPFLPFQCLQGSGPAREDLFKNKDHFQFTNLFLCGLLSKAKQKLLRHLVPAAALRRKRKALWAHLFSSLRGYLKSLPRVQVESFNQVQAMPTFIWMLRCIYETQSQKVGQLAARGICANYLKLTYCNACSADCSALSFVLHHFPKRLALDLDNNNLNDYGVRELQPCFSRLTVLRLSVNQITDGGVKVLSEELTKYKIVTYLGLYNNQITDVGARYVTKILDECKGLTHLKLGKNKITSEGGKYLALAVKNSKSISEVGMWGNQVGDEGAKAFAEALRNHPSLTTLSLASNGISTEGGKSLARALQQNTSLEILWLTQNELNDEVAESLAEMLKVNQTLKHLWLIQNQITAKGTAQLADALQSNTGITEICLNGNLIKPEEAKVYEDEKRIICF

[13] = target: T4, Interleukin-8 (Homo sapiens, UniProt P10145); test: SAR analysis of GM-Tri-DAP induced IL-8 secretion in MCF-7/NOD1 cells - Set 2. [Related pubchem assays (depositor defined):AID1575, AID1578, AID2333]; assay type: functional, cell-based
T4 sequence (P10145 whole entry): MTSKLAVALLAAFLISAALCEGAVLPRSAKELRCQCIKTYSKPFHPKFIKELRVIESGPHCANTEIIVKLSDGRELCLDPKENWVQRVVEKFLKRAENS

[14] = target: Tumor necrosis factor (Homo sapiens, UniProt P01375); test: TNFa-triggered NF-kB activation inhibitors, SAR follow-up, cell-based, set 3 (AID 2801); assay type: functional
[15] = target: T2, Nucleotide-binding oligomerization domain-containing protein 2; test: NOD2 signaling inhibitors, analog potency, SAR follow-up, cell-based, set 3 (AID 2799); assay type: functional
[16] = target: T4, Interleukin-8; test: SAR analysis of Tumor necrosis factor alpha (TNF-alpha) induced IL-8 secretion in MCF-7/NOD1 cells - Set 2. [Related pubchem assays (depositor defined):AID1575, AID2250, AID2260]; assay type: functional, cell-based
[17] = target: T3, Nucleotide-binding oligomerization domain-containing protein 1; test: SAR analysis of compounds that inhibit NOD1 - Set 2. [Related pubchem assays (depositor defined):AID1566, AID1575, AID1578, AID1849, AID1852, AID2333, AID2335, AID2798]; assay type: functional
[18] = target: T3, Nucleotide-binding oligomerization domain-containing protein 1; test: SAR analysis of NF-kappaB dependent luciferase using DAP as an inducer - Set 2. [Related pubchem assays (depositor defined):AID1566, AID1575, AID1578, AID1579, AID1849, AID1852, AID2264]; assay type: functional
[19] = target: Cytochrome P450 2C19 (Homo sapiens, UniProt P33261); test: Cytochrome panel assay with activity outcomes. Panel member name: p450-cyp2c19 Compounds with AC50 equal or less than 10 uM are considered active; assay type: functional

Sequence of Voltage-gated inwardly rectifying potassium channel KCNH2 (Q12809 whole entry): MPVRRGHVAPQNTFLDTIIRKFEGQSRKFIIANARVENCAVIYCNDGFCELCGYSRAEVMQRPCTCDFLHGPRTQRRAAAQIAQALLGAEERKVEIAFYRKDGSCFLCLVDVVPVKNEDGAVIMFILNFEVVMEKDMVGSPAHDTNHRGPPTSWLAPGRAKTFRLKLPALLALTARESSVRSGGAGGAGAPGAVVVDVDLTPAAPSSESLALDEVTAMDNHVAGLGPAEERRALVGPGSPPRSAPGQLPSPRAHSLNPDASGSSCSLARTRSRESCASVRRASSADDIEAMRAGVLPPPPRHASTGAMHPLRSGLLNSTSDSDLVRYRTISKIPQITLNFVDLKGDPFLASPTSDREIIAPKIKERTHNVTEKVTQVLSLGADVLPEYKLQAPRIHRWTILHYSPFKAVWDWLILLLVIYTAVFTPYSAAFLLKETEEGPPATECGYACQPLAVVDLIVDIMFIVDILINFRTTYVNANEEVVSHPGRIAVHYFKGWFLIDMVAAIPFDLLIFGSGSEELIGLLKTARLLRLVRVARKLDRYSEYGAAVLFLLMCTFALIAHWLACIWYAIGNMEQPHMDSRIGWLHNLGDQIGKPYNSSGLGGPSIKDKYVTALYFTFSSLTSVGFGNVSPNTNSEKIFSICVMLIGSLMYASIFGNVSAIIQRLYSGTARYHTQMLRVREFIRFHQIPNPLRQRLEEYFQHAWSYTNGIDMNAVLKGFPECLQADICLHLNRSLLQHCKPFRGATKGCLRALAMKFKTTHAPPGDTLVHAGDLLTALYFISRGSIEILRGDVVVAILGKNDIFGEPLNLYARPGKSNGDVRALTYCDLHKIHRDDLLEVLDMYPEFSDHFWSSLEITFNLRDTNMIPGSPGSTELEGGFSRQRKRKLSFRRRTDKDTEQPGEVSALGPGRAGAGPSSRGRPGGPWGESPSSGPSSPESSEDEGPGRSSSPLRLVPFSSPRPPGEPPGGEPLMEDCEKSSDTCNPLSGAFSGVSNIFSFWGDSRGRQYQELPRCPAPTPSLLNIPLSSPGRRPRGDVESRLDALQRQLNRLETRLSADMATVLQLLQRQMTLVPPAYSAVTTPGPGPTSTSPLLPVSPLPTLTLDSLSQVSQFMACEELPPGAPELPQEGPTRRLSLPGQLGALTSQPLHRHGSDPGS
Sequence of Cytochrome P450 2D6 (P10635 whole entry): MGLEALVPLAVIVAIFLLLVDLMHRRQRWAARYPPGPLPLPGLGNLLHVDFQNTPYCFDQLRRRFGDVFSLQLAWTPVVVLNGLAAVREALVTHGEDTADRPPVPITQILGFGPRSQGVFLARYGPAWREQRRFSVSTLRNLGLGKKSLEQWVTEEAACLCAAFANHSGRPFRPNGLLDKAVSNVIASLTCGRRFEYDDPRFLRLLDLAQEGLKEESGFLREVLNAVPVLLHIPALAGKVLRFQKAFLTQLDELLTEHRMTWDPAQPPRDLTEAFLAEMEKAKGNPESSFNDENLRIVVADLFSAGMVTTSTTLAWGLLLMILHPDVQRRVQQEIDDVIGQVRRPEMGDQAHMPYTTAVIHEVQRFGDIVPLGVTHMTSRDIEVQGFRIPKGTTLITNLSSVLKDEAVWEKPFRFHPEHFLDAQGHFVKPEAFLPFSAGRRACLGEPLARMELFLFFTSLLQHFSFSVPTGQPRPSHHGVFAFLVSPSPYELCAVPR
T2 sequence (Q9HC29 whole entry, the tested form may be a part): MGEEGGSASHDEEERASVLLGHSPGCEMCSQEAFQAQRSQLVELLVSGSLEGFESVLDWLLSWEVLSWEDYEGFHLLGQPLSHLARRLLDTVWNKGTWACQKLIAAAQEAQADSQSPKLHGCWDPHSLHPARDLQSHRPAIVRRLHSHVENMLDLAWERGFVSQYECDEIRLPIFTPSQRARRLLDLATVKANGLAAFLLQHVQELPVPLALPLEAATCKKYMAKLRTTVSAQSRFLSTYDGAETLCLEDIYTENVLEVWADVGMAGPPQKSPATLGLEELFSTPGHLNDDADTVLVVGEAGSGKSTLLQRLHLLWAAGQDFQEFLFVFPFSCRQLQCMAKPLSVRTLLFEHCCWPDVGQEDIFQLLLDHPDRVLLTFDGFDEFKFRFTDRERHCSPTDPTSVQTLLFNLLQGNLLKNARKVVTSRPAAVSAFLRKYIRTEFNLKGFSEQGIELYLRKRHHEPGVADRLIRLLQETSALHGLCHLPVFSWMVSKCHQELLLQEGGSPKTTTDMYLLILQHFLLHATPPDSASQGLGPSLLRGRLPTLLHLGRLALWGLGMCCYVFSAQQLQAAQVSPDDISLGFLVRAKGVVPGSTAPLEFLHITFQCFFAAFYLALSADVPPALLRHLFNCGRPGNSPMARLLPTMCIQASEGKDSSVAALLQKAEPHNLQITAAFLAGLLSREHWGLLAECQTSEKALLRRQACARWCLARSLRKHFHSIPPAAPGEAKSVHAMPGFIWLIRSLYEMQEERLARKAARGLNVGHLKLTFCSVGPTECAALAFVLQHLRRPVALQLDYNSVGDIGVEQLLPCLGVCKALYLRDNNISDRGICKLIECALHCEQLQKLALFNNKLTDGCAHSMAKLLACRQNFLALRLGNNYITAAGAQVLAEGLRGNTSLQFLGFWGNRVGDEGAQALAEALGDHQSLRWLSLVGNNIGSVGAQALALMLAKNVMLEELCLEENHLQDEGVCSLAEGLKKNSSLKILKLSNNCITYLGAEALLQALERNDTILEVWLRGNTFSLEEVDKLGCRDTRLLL
T1 sequence (P11712 whole entry): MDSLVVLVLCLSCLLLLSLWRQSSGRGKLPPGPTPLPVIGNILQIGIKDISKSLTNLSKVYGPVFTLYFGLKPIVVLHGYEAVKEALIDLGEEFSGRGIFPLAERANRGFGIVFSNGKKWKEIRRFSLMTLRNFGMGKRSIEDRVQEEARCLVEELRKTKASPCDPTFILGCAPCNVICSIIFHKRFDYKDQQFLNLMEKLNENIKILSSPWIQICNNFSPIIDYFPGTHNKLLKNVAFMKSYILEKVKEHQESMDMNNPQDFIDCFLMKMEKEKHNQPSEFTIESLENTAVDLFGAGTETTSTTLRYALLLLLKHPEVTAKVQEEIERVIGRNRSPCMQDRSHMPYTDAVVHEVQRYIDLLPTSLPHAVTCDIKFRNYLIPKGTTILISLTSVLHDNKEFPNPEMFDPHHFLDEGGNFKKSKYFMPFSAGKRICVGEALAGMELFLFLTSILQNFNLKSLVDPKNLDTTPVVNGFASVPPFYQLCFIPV
Sequence of SUMO E1/E2 (Q9UBE0 whole entry): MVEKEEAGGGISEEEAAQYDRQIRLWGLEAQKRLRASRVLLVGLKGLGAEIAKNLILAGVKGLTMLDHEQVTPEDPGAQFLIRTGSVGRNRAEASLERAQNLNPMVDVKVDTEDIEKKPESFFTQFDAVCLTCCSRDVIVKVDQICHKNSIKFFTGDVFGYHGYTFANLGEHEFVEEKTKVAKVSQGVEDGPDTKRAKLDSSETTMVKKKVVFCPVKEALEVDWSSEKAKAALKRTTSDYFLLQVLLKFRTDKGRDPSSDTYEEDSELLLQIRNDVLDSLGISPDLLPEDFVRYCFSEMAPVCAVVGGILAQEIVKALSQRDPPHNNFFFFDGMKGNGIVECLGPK
Sequence of SUMO E1/E2 (Q9UBT2 whole entry): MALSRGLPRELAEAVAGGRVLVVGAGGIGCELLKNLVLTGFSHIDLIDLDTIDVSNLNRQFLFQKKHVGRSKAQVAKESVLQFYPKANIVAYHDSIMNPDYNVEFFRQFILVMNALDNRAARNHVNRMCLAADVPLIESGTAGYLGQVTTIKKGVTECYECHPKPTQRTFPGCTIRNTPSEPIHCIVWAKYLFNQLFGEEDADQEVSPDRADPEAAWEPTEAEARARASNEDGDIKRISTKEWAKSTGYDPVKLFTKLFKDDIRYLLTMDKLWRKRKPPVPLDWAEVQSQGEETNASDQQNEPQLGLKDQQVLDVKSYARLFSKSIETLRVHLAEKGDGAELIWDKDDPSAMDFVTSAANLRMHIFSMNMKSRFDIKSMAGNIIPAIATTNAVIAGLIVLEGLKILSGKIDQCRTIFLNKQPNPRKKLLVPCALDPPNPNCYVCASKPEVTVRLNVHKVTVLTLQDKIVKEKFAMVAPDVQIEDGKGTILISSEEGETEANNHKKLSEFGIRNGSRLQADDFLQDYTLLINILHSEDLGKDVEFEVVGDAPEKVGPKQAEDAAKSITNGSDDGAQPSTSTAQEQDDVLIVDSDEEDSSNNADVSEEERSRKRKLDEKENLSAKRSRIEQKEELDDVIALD
Sequence of SUMO E1/E2 (P63279 whole entry): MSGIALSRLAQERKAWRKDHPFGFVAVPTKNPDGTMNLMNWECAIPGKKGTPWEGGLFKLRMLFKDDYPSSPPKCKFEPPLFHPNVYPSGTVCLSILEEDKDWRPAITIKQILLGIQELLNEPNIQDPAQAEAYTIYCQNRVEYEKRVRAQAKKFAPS
Sequence of Beta-2 adrenergic receptor (P07550 whole entry): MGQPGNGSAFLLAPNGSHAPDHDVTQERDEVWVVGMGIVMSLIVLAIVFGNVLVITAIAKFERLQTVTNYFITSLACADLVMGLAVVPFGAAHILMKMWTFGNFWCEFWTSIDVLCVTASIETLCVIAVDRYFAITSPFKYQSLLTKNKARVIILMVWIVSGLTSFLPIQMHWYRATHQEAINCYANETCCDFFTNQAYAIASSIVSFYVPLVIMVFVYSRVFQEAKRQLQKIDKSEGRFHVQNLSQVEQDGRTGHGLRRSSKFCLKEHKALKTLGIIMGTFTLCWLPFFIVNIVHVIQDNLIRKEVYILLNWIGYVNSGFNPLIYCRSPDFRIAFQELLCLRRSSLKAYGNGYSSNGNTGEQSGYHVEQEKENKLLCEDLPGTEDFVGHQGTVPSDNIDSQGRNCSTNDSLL
Sequence of Tumor necrosis factor (P01375 whole entry, the tested form may be a part): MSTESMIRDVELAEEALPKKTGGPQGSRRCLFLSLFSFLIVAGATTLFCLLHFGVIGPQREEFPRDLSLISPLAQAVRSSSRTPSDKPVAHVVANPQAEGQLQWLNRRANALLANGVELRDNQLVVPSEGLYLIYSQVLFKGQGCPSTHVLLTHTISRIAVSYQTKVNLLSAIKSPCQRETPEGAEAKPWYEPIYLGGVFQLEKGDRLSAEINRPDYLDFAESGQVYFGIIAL

For COc1ccccc1CNC(=O)COC(=O)c1cc(-c2cccs2)nc2ccccc12, the IC50 [1] was 30.1 µM (active).

For CCOC(=O)CN=C(S)N(Cc1cccs1)C1CCCCC1, the EC50 [2] was > 59.6 µM (inactive) and the EC50 [3] was > 59.6 µM (inactive).

For Nc1nc2c(nc(Br)n2C2O[C@H]3CO[P@@](=O)(O)O[C@@H]3C2O)c(=O)[nH]1 (stereo partly specified), the AC50 [4] was 5.62 µM (inconclusive).

Nc1c2c(nc3ccccc13)CCCC2O (stereo unspecified) [VELNACRINE MALEATE] was tested, and the AC50 [4] was 35.5 µM (inconclusive).

COc1cc2c(c(OC)c1OC)-c1ccc(OC)c(=O)cc1[C@H](NC(C)=O)CC2 was tested, and the AC50 [5] was 39.8 µM (inconclusive), the AC50 [6] was “inactive” and the AC50 [7] was “inactive”.

For COc1ccccc1OCCCC(=O)Nc1nccs1, the EC50 [8] was 5.11 µM (active).

In the case of CCCn1c(SCC(=O)Nc2nc3c(s2)CCCC3)nc2c1c(=O)n(C)c(=O)n2C, the IC50 [9] was > 20 µM (inactive), the IC50 [10] was > 20 µM (inactive) and the IC50 [11] was 1.98 µM (active). The IC50 [12] was 1.36 µM (active), the IC50 [13] was > 25 µM (inactive) and the IC50 [14] was 2.12 µM (active). The IC50 [15] was 1.2 µM (active), the IC50 [16] was > 25 µM (inactive) and the IC50 [17] was 1.63 µM (active). For the same compound, the IC50 [18] was > 25 µM (inactive).

For O=C(O)CC1(C(=O)O)CCCCC1, the AC50 [19] was “inconclusive” and the AC50 [6] was “inconclusive”.

Source: ChEMBL document CHEMBL1201862, “PubChem BioAssay data set” (2004)
